The values below come from patent US4603139A, “Bicycle compounds, processes for their preparation and pharmaceutical formulations containing compounds” (Burroughs Wellcome Co., priority 1981, dated 1986).

Series [1] relates to right ventricular papillary muscle. Put plainly: in vitro inotropic activity (isolated right ventricular papillary muscle). To be noted: 75% increase in basal contractile force (Fc), carazolol 5×10^-8 M present, 34° C., cumulative additions; for EC75: Cavia porcellus, read-out: Potency for 75% increase Fc lying within the range. The series is classed as cell-based, guinea-pig. The procedure:
The heart was rapidly excised and washed with Krebs-Henesleit solution containing the β-adrenoceptor antagonist carazolol (5×10^-8 M) and gassed with 95% O2 : 5% CO2 at 34° C. The heat was transferred to a petri dish containing the same buffer kept at a constant temperature (34° C.) throughout the dissection. Fresh buffer was used for each dissection and washings were discarded after use. A single right ventricular papillary muscle was employed from each heart; the tendinous end ligated to a stainless steel hook and the lower end ligated and cut away from the ventricle wall and attached to a perspex clamp such that the tissue was in contact with a platimum punctate electrode. The stainless steel hook was suspended from a Grass FT.03 transducer which recorded isometric tension. The preparation was placed in a 20 ml pyrex organ bath containing buffer gassed with 95% O2 : 5% CO2 and maintained at 34° C. 500 mg loading tension was applied to the preparation. Stimulation was effected by rectangular pulses of Imsec duration at 1.5 Hz at 30% above the threshold voltage (1-5 volts) by a SRI stimulator. The transducer inputs were coupled to a potentiometric recording device by a 6-channel Grass transducer coupler. After 90 minutes, preparations unable to sustain uniform contractions beyond this period were rejected.

In series [2] the test system is anaesthetised, open-chest beagles. In words: in vivo inotropic and vasodilatory activity. Particulars: Canis lupus familiaris, bolus intravenous, 0.003-3.0 mg/kg; for ED50: increase in dp/dt of left ventricular pressure; for ED30: vasodilatory activity. The procedure:
The compounds of Examples 1,2 and 21 were tested in comparison with amrinone and […]. […] This is accompanied by a dose-related increase in aortic blood flow, and a fall in systemic blood pressure (see Table below).

The next series has as its system phosphodiesterase. In words: phosphodiesterase inhibitory activity. Format: biochemical. Particulars: 100 μM, 1 mM and 10 mM; 3H-cAMP 5 uM; guinea pig heart homogenate; 37° C., 30 minutes. The procedure: The determination of phosphodiesterase inhibitory activity was effected by a procedure based on that of Thompson and Appleman (Biochme., 10, 311 (1971)). ^3 H-cAMP (5 uM) is incubated at 37° C. for 30 minutes with the 1000Xg supernatent of a 10% (w/v) homogenate of guinea pig heart in 50 mM-Tris/HCL pH7+5 mM-mgCI2 in either the presence or the absence of the compound of Example 21 which, in the former case, is dissolved in Tris buffer to give final concentrations of 100 uM, 1 mM and 10 mM. Phosphodiesterase enzyme in the homogenate hydrolyses ^3 H-cAMP to ^3 H-5'-AMP which is further converted to ^3 H-adenosine by a 5'-nucleotidase added to the incubation mixture. After a period of incubation unchanged ^3 H-cAMP is removed by adding ion exchange resin to the mixture and centrifuging. The ^3 H in the supernatent is assayed by liquid scintillation counting and gives a quantitative measure of adenosine formation (i.e. cAMP hydrolysis). Comparison of the ^3 H-adenosine formed in the presence and absence of test compound gives a measure of the PDE-inhibitory activity of the compound.

Series [3] relates to ADP-induced platelet aggregation. Put plainly: ex vivo inhibition of platelet aggregation. The series is classed as in vivo. To be noted: Macaca mulatta, iv, anaesthetised rhesus monkey, read-out: effective dose causing 50% inhibition of aggregation. The procedure:
Rhesus monkeys of both sexes (7.3-9 kg, body weight) were sedated with phencyclidine, subsequently anaesthetised with thiopentone and maintained with sodium pentobarbitone. Catheters were placed in the left femoral artery to record blood pressure and in the left femoral vein for administration of drugs. A further catheter was placed in the contralateral femoral artery for the removal of blood samples. Heart rate was recorded from ECG (standard lead II). A left ventricular catheter was introduced via the left carotid artery to measure left ventricular pressure. […] Rectal temperature of the anaesthetised monkey was maintained at 37°-38° C. via a heated table-pad.
Blood samples (3 ml) were withdrawn into syringes containing trisodium citrate (0.315% w/v final concentration), and spun for […]. The platelet rich-plasma was transferred to a Born-type aggregometer and incubated for 1 min (at 37° C.) prior to the addition of sufficient ADP to induce sub-maximal (1.5-3 μM) or near maximal (8-12 μM) aggregation. Inhibition of aggregation was calculated with reference to at least 2 control samples prior to intravenous infusion of compound A. The sequence of administration of compound A was randomized between experiments. The effective dose of compound A which caused 50% inhibition of aggregation is 1.0 mg/kg i.v. (approximately).

The test system is the same in series [4]. In words: in vitro inhibition of platelet aggregation. The series is classed as cell-based, rhesus monkey. To be noted: Macaca mulatta, 1 min, platelet-rich plasma, 37° C., read-out: ID50 (dose causing 50% inhibition of platelet aggregation). The procedure:
Blood was freshly collected into siliconized (Siloclad; Clay Adams) plastic (Sterlin Ltd.) tubes containing trisodium citrate (3.15%; 0.1 volume with 0.9 volume blood) and centrifuged (200 g for 15 min) at room temperature. The platelet-rich plasma (PRP) was withdrawn into plastic containers and kept at room temperature. Inhibition of platelet aggregation was determined in a Born-type aggregometer by incubating aliquots (0.5 ml) of the PRP for 1 min at 37° C. with or without compound A prior to addition of sufficient adenosine diphosphate (ADP). Dose-inhibition curves were constructed for each compound and the ID50 (dose causing 50% inhibition) was calculated as the dose required to reduce the aggregation to 50% of its control amplitude. The ID50 for compound A is 1 mg/ml (approximately).

A further series deals with myocardial injury. In words: myocardial injury following selective ligation of the coronary artery in vivo.
The next series relates to ischaemic heart. In words: ventricular vulnerability to arrythmias in the ischaemic heart. The series is classed as in vivo.
The subject of series [5] is myocardial β-adrenoceptors. To be noted: Brutsaert et al 1982; Pouleur et al 1982; cited from earlier work.
In series [6] the test system is myocardial phosphodiesterase. To be noted: Diederan and Wiesenberger, 1981; cited from earlier work.

Converted amounts (≈) assume the structure as drawn. Counter-ions that a name gives are not always drawn.

In the case of `COc1ccc(-c2nc3cnccc3[nH]2)c([S+](C)[O-])c1` (stereo not drawn) [Example 22, 2-(2-Methylsulphinyl-4-methoxyphenyl)-1H-imidazo[4,5-c]pyridine hydrochloride], the EC75 in [1] was more than 1000 µM.
On the same count and under the same terms, under `COc1ccc(-c2nc3cnccc3n2C)c(OC)c1` [Example 41, 1-Methyl-2-(2,4-dimethoxyphenyl)-1H-imidazo[4,5-c]pyridine] stands more than 1000 µM.
Same read-out and setting: for `COc1cc(Cl)ccc1-c1nc2cnccc2[nH]1` [Example 10, 2-(2-methoxy-4-chlorophenyl)-1H-imidazo[4,5-c]pyridine hydrochloride] the value was 10 to 100 µM; for `COc1cc(-c2nc3cnccc3[nH]2)cc(OC)c1OC` [Example 3, 2-(3,4,5-trimethoxyphenyl)-1H-imidazo[4,5-c]pyridine dihydrochloride], more than 1000 µM.
For `CSc1ccccc1-c1nc2cnccc2[nH]1` [Example 29, 2-(2-methylthiophenyl)-1H-imidazo[4,5-c]pyridine hydrochloride], the EC75 in [1] is 100 to 1000 µM.
In the case of `COc1ccc(-c2nc3cnccc3[nH]2)cc1[S+](C)[O-]` (stereo not drawn) [Example 35, 2-(3-Methylsulphinyl-4-methoxyphenyl)-1H-imidazo[4,5-c]pyridine], the EC75 in series [1] is more than 1000 µM.
Turning to `COc1cc([S+](C)[O-])ccc1-c1nc2cnccc2[nH]1` (stereo not drawn) [Example 21, 2-(2-Methoxy-4-methylsulphinylphenyl)-1H-imidazo[4,5-c]pyridine], the EC75 in [1] was in the range of 100 to 1000 µM. Moreover, in [2], the ED50 worked out at 0.063 mg/kg and the ED30 stood at 0.19 mg/kg. Also, the PDE inhibitory activity entry with phosphodiesterase was “no PDE inhibitory activity”. For the same compound, the ED50 in series [3] was approximately 1 mg/kg. For the same compound, in series [4], the IC50 is approximately 1000 µg/mL (≈ 3.48 mM). The “effect on myocardial injury” value in the series on myocardial injury is reported as “does not exacerbate myocardial injury”. Further, the “effect on ventricular vulnerability to arrythmias” value with ischaemic heart is recorded as “does not increase ventricular vulnerability to arrythmias”.
Consider `COc1ccc(-c2nc3cnccc3[nH]2)cc1OC` [Example 8, 2-(3,4-dimethoxyphenyl)-1H-imidazo[4,5-c]pyridine dihydrochloride], for which, in [1], the EC75 was in the range of 10 to 100 µM.
With `COc1ccc(-c2nc3cnccc3[nH]2)c(OC)c1` [Example 1, 2-(2,4-Dimethoxyphenyl)-1H-imidazo[4,5-c]pyridine], in series [1], the EC75 fell in the range of 100 to 1000 µM. In series [2], this compound showed an ED50 of 0.13 mg/kg and an ED30 of 0.24 mg/kg.
As for `COc1cc(S(C)(=O)=O)ccc1-c1nc2cnccc2[nH]1` [Example 32, 2-(2-Methoxy-4-methylsulphonylphenyl)-1H-imidazo[4,5-c]pyridine], the EC75 in series [1] was 100 to 1000 µM.
In series [2], `COc1cc([S+](C)[O-])ccc1-c1nc2ncccc2[nH]1` (stereo not drawn) [Vardax, 2-[(2-methoxy-4-methylsulphinyl)phenyl]-1H-imidazo[4,5-b]pyridine, reference compound] registered an ED50 of 1 mg/kg and an ED30 of 2.11 mg/kg. Further, the “contribution of myocardial β-adrenoceptor stimulation to positive inotropic stimulation” value in [5] was “at least part of the positive inotropic stimulation”. The “inhibition of myocardial phosphodiesterase” value in series [6] is given as “effective inhibitor of myocardial phosphodiesterase”.
Turning to “2-(2-methylsulphinyl)-1H-imidazo[4,5-c]pyridine hydrochloride [Example 50]”, the “Potency for 75% increase Fc lying within the range” value in series [1] was > 10^-3 M.
For the compound `COc1cc([S+](C)[O-])ccc1-c1nc2cnccc2[nH]1.Cl` (stereo not drawn) [Example 23, 2-(2-Methoxy-4-methylsulphinylphenyl)-1H-imidazo[4,5-c]pyridine hydrochloride], the “Potency for 75% increase Fc lying within the range” value in series [1] is listed as 10^-4 -10^-3 M.
In the case of `COc1ccc(-c2nc3ccncc3n2C)c(OC)c1` [Example 40, 3-Methyl-2-(2,4-dimethoxyphenyl)-1H-imidazo[4,5-c]pyridine], the EC75 in series [1] is more than 1000 µM.
In series [2], `Nc1cc(-c2ccncc2)c[nH]c1=O` [Amrinone, reference compound] gave an ED50 of 1 mg/kg and an ED30 of 2 mg/kg.
For `COc1ccc(-c2nc3cnccc3[nH]2)cc1SC` [Example 34, 2-(3-Methylthio-4-methoxyphenyl)-1H-imidazo-[4,5-c]pyridine dihydrochloride], the EC75 in [1] lay within 100 to 1000 µM.
`COc1ccccc1-c1nc2cnccc2[nH]1` [Example 7, 2-(2-methoxyphenyl)-1H-imidazo[4,5-c]pyridine hydrochloride]: in series [1], the EC75 lay within 100 to 1000 µM.
In the case of `COc1ccc(-c2nc3cnccc3[nH]2)cc1.Cl.Cl` [Example 2, 2-(4-Methoxyphenyl)-1H-imidazo[4,5-c]pyridine dihydrochloride], in series [2], the ED50 was 2 mg/kg and the ED30 is 5.1 mg/kg.
Regarding `COc1ccc(-c2nc3c[n+]([O-])ccc3[nH]2)c(OC)c1` [Example 38, 2-(2,4-Dimethoxyphenyl)-1H-imidazo[4,5-c]pyridineN^5-oxide hydrate], the EC75 in series [1] is more than 1000 µM.
